Experimental data: patent US9314530B2, “Composition, in aqueous medium, that comprises at least a hyaluronic acid and at least an hydrosoluble salt of sucrose octasulfate” (LABORATOIRES VIVACY, priority 2012, dated 2016)

Experiments:
Type in all cases: physicochemical
[1] = Stability with regard to steam autoclaving: viscosity of non-crosslinked hyaluronic acid compositions (rheometer)
Experimental: For the compositions according to the invention comprising non-crosslinked hyaluronic acid, the viscosity η of the sterilized compositions after the steam autoclaving step is characterized on a TA Instruments AR 2000 Ex rheometer, under controlled constraint conditions, at 25° C. The viscosity value is recorded at a constraint of 0.02 s^−1.
For the compositions comprising non-crosslinked hyaluronic acid, the percentage of loss in the viscosity is the value of the difference in the viscosity of the reference composition after steam autoclaving and the viscosity of the composition comprising non-crosslinked hyaluronic acid and a sulphated oligo-polysaccharide or a sulphated monosaccharide after steam autoclaving over the value of the viscosity of the reference composition after steam autoclaving.
(§1) For these all measurements, a reference composition is formulated, the aqueous solution of sulphated oligo-polysaccharide or of sulphated monosaccharide being replaced by the same amount of aqueous solution of phosphate buffer.
Nine compositions comprising non-crosslinked hyaluronic acid and a sulphated oligo-polysaccharide or a sulphated monosaccharide at a concentration of 1 mg/g in the composition are prepared according to the procedure described in Example 1.
A reference composition is also formulated, the aqueous solution of sulphated oligo-polysaccharide or of sulphated monosaccharide being replaced by the same amount of aqueous solution of phosphate buffer.
A series of five compositions comprising non-crosslinked hyaluronic acid, mannitol and a sulphated oligo-polysaccharide or a sulphated monosaccharide at a concentration of 1 mg/g in the composition is prepared according to the procedure described in Example 3.
Examples of tests on formulations of KSOS (at different concentrations) with a non-crosslinked gel of Example 1 at the concentrations and ratios described in Table 7 below.
The gels are sterilized and then characterized by rheology according to Example 8.

[2] = Stability with regard to steam autoclaving: elastic component G′ of crosslinked hyaluronic acid compositions (rheometer)
Experimental: For the compositions according to the invention comprising crosslinked hyaluronic acid, the elastic component G′ of the sterilized compositions after the autoclaving step is characterized on a TA Instruments AR 2000 Ex rheometer, under oscillation conditions, at 25° C., the values of the elastic component being recorded at a frequency of 1 Hz.
For the compositions comprising crosslinked hyaluronic acid, the percentage of loss in the elastic component G′ is the value of the difference in the elastic component G′ of the reference composition after steam autoclaving and the elastic component G′ of the composition comprising crosslinked hyaluronic acid and a sulphated oligo-polysaccharide or a sulphated monosaccharide after steam autoclaving over the value of the elastic component G′ of the reference composition after steam autoclaving.
as §1
A series of four compositions comprising crosslinked hyaluronic acid, mannitol and a sulphated oligo-polysaccharide or a sulphated monosaccharide at a concentration of 1 mg/g in the composition is prepared according to the procedure described in Example 4.
A reference composition is also formulated, the aqueous solution of sulphated oligo-polysaccharide or of sulphated monosaccharide being replaced by an equivalent amount of aqueous solution of phosphate buffer.
Examples of tests on formulations of KSOS (at different concentrations) with a 20 mg/g crosslinked NaHA gel (IPN-like gel, sold under the Stylage® M brand), which is the reference gel.
The gels are sterilized and then characterized.
The percentage of loss in the elastic component G′ with respect to the reference composition is measured according to Example 8 and the difference between the injectability force, through 30-gauge ½ hypodermic needles, of the reference gel and of the gels comprising potassium sucrose octasulphate is measured.
Example of test on formulation of KSOS with a gel comprising crosslinked hyaluronic acid at the concentration and at the ratio described in Table 8 below.
The gels are prepared according to the procedure described in Example 2 and are then characterized by rheology according to Example 8.

[3] = Solubility of salts of sucrose octasulphate
[4] = after steam autoclaving, non-crosslinked hyaluronic acid + mannitol + sulphated saccharide at 1 mg/g (procedure of Example 3)
[5] = after steam autoclaving, non-crosslinked hyaluronic acid + sulphated saccharide at 1 mg/g (procedure of Example 1), viscosity at 25° C., 0.02 s^−1
[6] = after steam autoclaving, crosslinked hyaluronic acid + mannitol + sulphated saccharide at 1 mg/g (procedure of Example 4), 25° C., 1 Hz

Row | Molecule | % of loss in the viscosity with respect to the reference composition [1, 4] | % of loss in the viscosity with respect to the reference composition [1, 5] | % of loss in the elastic component G′ with respect to the reference composition [2, 6] | further results
1 | N[C@H]1C(O)O[C@H](COS(=O)(=O)O)[C@@H](O)[C@@H]1O (stereo partly drawn) [D-Glucosamine-6-sulphate, reference compound] | 90% | 98% | 74% | 
2 | CC(=O)N[C@H]1C(O)O[C@H](COS(=O)(=O)O)[C@@H](O)[C@@H]1O (stereo partly drawn) [N-Acetyl-D-glucosamine-6-sulphate, reference compound] | 60% | 96% | 32% | 
3 | O=S(=O)([O-])OC[C@H]1O[C@@](COS(=O)(=O)[O-])(O[C@H]2O[C@H](COS(=O)(=O)[O-])[C@@H](OS(=O)(=O)[O-])[C@H](OS(=O)(=O)[O-])[C@H]2OS(=O)(=O)[O-])[C@@H](OS(=O)(=O)[O-])[C@@H]1OS(=O)(=O)[O-].[Na+].[Na+].[Na+].[Na+].[Na+].[Na+].[Na+].[Na+] [Sodium sucrose octasulphate] | 0% | 0% |  | solubility compared with the potassium salt [3]: greater than that of the potassium salt
4 | Dextran sulphate(40000) [reference compound] |  | 16% |  | 
5 | Hexasulphated carrageenan(hexasaccharide) [reference compound] |  | 92% |  | 
6 | Chondroitin sulphate [reference compound] |  | 62% |  | 
7 | O=S(=O)(O)N[C@H]1C(O)O[C@H](CO)[C@@H](O)[C@@H]1O (stereo partly drawn) [D-Glucosamine-2-sulphate, reference compound] | 25% | 87% | 18% | 
8 | Disulphated carrageenan(disaccharide) [reference compound] |  | 94% |  | 
9 | Potassium sucrose octasulphate | 0% | 0% | 0% | % of loss in the viscosity with respect to the reference composition ([1]; after autoclaving, non-crosslinked NaHA 4 mg/g, KSOS 40 mg/g, [HA]/[SOS] 0.1): 0%; % of loss in the viscosity with respect to the reference composition ([1]; after autoclaving, non-crosslinked NaHA 10 mg/g, KSOS 10 mg/g, [HA]/[SOS] 1): 0%; % of loss in the viscosity with respect to the reference composition ([1]; after autoclaving, non-crosslinked NaHA 10 mg/g, KSOS 20 mg/g, [HA]/[SOS] 0.5): 0%; % of loss in the viscosity with respect to the reference composition ([1]; after autoclaving, non-crosslinked NaHA 20 mg/g, KSOS 10 mg/g, [HA]/[SOS] 2): 0%; % of loss in the viscosity with respect to the reference composition ([1]; after autoclaving, non-crosslinked NaHA 20 mg/g, KSOS 20 mg/g, [HA]/[SOS] 1): 0%; % of loss in the viscosity with respect to the reference composition ([1]; after autoclaving, non-crosslinked NaHA 25 mg/g, KSOS 0.01 mg/g, [HA]/[SOS] 2500): 0%; % of loss in the viscosity with respect to the reference composition ([1]; after autoclaving, non-crosslinked NaHA 25 mg/g, KSOS 0.05 mg/g, [HA]/[SOS] 500): 0%; % of loss in the elastic component G′ with respect to the reference composition ([2]; after autoclaving, crosslinked NaHA 10.3 mg/g, KSOS 25 mg/g, [HA]/[SOS] 0.4 (procedure of Example 2)): 0%; % of loss in the elastic component G′ with respect to the reference composition ([2]; after steam autoclaving, crosslinked hyaluronic acid + mannitol + sulphated saccharide at 1 mg/g (procedure of Example 4), 25° C., 1 Hz, listed as potassium sucrose octasulphate): no loss; maximum solubility [3]: 40 mg/g
